In patent US20260306642A1, “STAT DEGRADERS AND USES THEREOF” (Recludix Pharma, Inc., priority 2023, published 2026):

Key:
STAT6 = target: T1, STAT6 (Homo sapiens, UniProt P42226); assay: STAT6 Fluorescence Polarization (FP) Assay; format: binding
T1 construct: Recombinant STAT6 protein (STAT6(W123-T658))
T1 sequence (P42226 123-658): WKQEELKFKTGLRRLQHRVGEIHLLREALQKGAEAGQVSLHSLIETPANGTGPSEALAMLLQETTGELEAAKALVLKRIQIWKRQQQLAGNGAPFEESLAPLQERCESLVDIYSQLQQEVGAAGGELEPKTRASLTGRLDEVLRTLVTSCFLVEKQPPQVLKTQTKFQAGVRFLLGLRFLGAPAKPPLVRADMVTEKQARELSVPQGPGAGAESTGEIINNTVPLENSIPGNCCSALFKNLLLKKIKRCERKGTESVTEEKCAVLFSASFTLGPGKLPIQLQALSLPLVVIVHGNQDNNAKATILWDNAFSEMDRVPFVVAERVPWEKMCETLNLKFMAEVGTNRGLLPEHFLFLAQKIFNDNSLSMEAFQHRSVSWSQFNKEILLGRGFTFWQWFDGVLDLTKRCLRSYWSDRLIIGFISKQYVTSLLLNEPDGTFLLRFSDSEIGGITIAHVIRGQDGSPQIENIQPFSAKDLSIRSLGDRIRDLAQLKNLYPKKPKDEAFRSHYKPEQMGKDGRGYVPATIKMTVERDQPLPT
Description: An FP assay was developed to determine IC50 values for test substances. Recombinant STAT6 protein (STAT6(W123-T658)) at 250 nM was combined with a fluorescently labeled, phosphotyrosine peptide probe (5-FAM-ApYKPFQDLI-NH2) at 2 nM in FP buffer (10 mM HEPES pH 7.4, 50 mM NaCl, 1 mM EDTA, 0.05% Tween 20, 2 mM DTT). 50 μL of STAT6-probe mixture was added to serial diluted compounds in black, 96-well plates (Greiner BioOne 655076) to a final concentration of 1% DMSO. Reaction components were mixed, and FP was measured after 45-minute incubation at room temperature using a Tecan Spark multimode plate reader. FP signal (mP) was plotted against the log concentration of the test substances and IC50 values were calculated by nonlinear regression analysis using GraphPad Prism software. For STAT6 FP assay, A=≤300 nM; B=>300-3000 nM; C=>3-30 μM; and D=>30 μM.

STAT3 = target: T2, STAT3 (Homo sapiens, UniProt P40763); assay: STAT3 Fluorescence Polarization (FP) Assay; format: binding
T2 construct: Recombinant STAT3 protein (STAT3(G127-I722))
T2 sequence (P40763 127-722): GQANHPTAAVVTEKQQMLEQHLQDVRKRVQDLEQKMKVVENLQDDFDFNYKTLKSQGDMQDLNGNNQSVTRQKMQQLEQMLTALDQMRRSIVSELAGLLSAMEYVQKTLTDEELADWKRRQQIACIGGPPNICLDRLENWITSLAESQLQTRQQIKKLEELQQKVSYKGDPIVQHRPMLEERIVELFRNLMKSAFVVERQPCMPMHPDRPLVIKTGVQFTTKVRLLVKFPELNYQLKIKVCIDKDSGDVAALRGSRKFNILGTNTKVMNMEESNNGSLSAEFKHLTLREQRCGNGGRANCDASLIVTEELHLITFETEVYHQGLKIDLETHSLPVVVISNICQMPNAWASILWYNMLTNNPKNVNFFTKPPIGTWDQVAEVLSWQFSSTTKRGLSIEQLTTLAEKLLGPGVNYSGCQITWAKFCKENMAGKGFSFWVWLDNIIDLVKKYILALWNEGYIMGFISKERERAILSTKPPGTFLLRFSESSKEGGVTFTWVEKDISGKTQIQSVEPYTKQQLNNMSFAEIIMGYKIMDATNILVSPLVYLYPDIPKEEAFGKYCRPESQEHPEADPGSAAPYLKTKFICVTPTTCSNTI
Description: An FP assay was developed to determine IC50 values for test substances.
Recombinant STAT3 protein (STAT3(G127-I722)) at 25 nM was combined with a fluorescently labeled, phosphotyrosine peptide probe (5-FAM-GpYLPQTV-NH2) at 2 nM in FP buffer (10 mM HEPES pH 7.4, 50 mM NaCl, 1 mM EDTA, 0.05% Tween 20, 2 mM DTT). 50 μL of STAT3-probe mixture was added to serial diluted compounds in black, 96-well plates (Greiner BioOne 655076) to a final concentration of 1% DMSO. Reaction components were mixed, and FP was measured after 45-minute incubation at room temperature using a Tecan Spark multimode plate reader. FP signal (mP) was plotted against the log concentration of the test substances and IC50 values were calculated by nonlinear regression analysis using GraphPad Prism software. For STAT3 FP assay, A=≤100 nM; B=>100-1000 nM; C=>1-10 μM; and D=>10 μM.

pSTAT6 = target: T3, pSTAT6 (Homo sapiens, UniProt P42226); assay: MSD-pSTAT-PBMC Assay (pSTAT6, IL-4 stimulated); format: cell-based; conditions: compound 3 hrs, then 1 ng/mL IL-4 10 min, pY641-STAT6, read-out: pSTAT6 IC50
T3 sequence (P42226 1-847): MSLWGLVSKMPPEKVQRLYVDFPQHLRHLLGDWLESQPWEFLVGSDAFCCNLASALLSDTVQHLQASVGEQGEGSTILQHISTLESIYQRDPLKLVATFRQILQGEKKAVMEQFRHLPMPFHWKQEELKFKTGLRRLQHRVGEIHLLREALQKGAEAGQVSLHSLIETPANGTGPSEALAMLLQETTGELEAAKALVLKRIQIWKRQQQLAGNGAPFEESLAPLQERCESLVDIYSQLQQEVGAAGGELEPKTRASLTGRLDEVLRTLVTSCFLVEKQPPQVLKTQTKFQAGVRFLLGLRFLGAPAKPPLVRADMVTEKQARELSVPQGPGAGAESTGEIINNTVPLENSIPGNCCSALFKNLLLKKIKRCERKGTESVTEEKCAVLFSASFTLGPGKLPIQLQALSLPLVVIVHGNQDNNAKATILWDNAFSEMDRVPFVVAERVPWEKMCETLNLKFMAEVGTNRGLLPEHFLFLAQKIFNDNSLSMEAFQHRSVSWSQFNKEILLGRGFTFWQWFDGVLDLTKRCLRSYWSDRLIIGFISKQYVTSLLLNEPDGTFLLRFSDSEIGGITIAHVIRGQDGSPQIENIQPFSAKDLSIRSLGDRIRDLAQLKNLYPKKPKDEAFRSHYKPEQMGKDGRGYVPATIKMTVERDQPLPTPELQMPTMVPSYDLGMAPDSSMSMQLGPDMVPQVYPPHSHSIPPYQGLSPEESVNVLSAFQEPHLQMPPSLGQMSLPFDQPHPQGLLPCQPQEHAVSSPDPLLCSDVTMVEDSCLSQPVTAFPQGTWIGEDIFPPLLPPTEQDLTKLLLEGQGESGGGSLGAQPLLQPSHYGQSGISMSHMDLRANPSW
From the text: Cryopreserved Peripheral Blood Mononuclear Cells (PBMC) are from AllCells. Recombinant Human IL-4 and IL-6 are from Peprotech. Mouse monoclonal anti-STAT3 antibody, rabbit monoclonal anti-pY705-STAT3 antibody, rabbit monoclonal Anti-pY641-STAT6 antibody, and lysis buffer are from Cell Signaling Technology (CST). Mouse monoclonal anti-STAT6 antibody is from BioLegend. Assay plates, blocker, and anti-rabbit secondary antibody are from Meso Scale Discovery (MSD).
Cryopreserved PBMCs were thawed out and allowed to recover overnight in IMDM+10% heat-inactivated FBS prior to plating 50,000 (STAT3) or 25,000 (STAT6) cells per well in 96-well U-bottom tissue culture plates. Cells were treated with compound for 3 hrs, then stimulated with 10 ng/mL IL-6 (STAT3) or 1 ng/mL IL-4 (STAT6) for 10 min. Cells were then spun down and washed with ice-cold PBS prior to lysing the cell pellet with 1× lysis buffer (CST) with 1× HALT protease and phosphatase inhibitor cocktail (Thermo). Lysates were transferred to and incubated overnight at 4° C. with shaking in QuickPlex 96-well high bind assay plates (MSD) pre-coated overnight with 30 μL per well of […] mouse monoclonal anti-STAT3 antibody (STAT3) or 2 μg/mL mouse monoclonal anti-STAT6 antibody (STAT6) in 1× PBS, and pre-blocked for 1 hour with 3% Blocker-A (MSD). Captured protein in the assay plates were then washed and probed with 25 μL per well of […] rabbit monoclonal anti-pY705-STAT3 antibody (STAT3) or […] rabbit monoclonal Anti-pY641-STAT6 antibody (STAT6) in 1% Blocker-A for 1 hour at room temperature with shaking, then washed and probed with 25 ul per well of 1 ug/ml Sulfo-TAG Labeled Goat Anti-Rabbit Antibody (MSD) in 1% Blocker-A for 1 hour at room temperature with shaking. Assay plates were then washed and 150 μL of 1× Read Buffer-T (MSD) was added to each well prior to reading on an SQ120 MSD Plate Reader. Assay signal from each sample was subtracted by the signal from unstimulated control wells and normalized to DMSO control wells. IC50 values were calculated using Graph Pad Prism Dose-Response Nonlinear Regression with variable slope. For both pSTAT3 and pSTAT6 A=≤100 nM; B=>100-1000 nM; C=>1000-3000 nM; and D=>3 μM.

Row | SMILES | IC50 (STAT6) [µM] | IC50 (STAT3) [µM] | IC50 (pSTAT6) [µM]
1 | N#CC1CN(C(=O)C2CCC3CCCCC(NC(=O)c4cc5cc(C(F)(F)P(=O)(O)O)ccc5s4)C(=O)N32)CC1c1cccc(OCCOCCOc2cccc3c2CN(C2CCC(=O)NC2=O)C3=O)c1 [Compound 16, ((2-(((3S,6S,10aS)-3-((rel-3S,4R)-3-cyano-4-(3-(2-(2-((2-(2,6-dioxopiperidin-3-yl)-1-oxoisoindolin-4-yl)oxy)ethoxy)ethoxy)phenyl)pyrrolidine-1-carbonyl)-5-oxodecahydropyrrolo[1,2-a]azocin-6-yl)carbamoyl)benzo[b]thiophen-5-yl)difluoromethyl)phosphonic acid] | 0.3 to 3 | 0.1 to 1 | 1 to 3
2 | N#C[C@@H]1CN(C(=O)[C@@H]2CC[C@@H]3CCCC[C@H](NC(=O)c4cc5cc(C(F)(F)P(=O)(O)O)ccc5s4)C(=O)N32)C[C@H]1c1cccc(OCCCCOc2ccc(C3CCC(=O)NC3=O)cc2)c1 (mixture of isomers) [Compound 3, trans-((2-(((3S,6S,10aS)-3-(3-cyano-4-(3-(4-(4-(2,6-dioxopiperidin-3-yl)phenoxy)butoxy)phenyl)pyrrolidine-1-carbonyl)-5-oxodecahydropyrrolo[1,2-a]azocin-6-yl)carbamoyl)benzo[b]thiophen-5-yl)difluoromethyl)phosphonic acid] | < 0.3 | 0.1 to 1 | 1 to 3
3 | O=C1CCC(c2ccc(OCCCCCOc3cc([C@@H]4CN(C(=O)[C@@H]5CC[C@@H]6CCCC[C@H](NC(=O)c7cc8cc(C(F)(F)P(=O)(O)O)ccc8s7)C(=O)N65)C5(CC5)C4)ccn3)cc2)C(=O)N1 (stereo partly drawn) [Compound 19, ((2-(((3S,6S,10aS)-3-((6R)-6-(2-((5-(4-(2,6-dioxopiperidin-3-yl)phenoxy)pentyl)oxy)pyridin-4-yl)-4-azaspiro[2.4]heptane-4-carbonyl)-5-oxodecahydropyrrolo[1,2-a]azocin-6-yl)carbamoyl)benzo[b]thiophen-5-yl)difluoromethyl)phosphonic acid] | 0.3 to 3 | 1 to 10 | > 3
4 | O=C1CCC(c2ccc(OCCCCCn3ccc([C@@H]4CN(C(=O)[C@@H]5CC[C@@H]6CCCC[C@H](NC(=O)c7cc8cc(C(F)(F)P(=O)(O)O)ccc8s7)C(=O)N65)C5(CC5)C4)cc3=O)cc2)C(=O)N1 (stereo partly drawn) [Compound 17, ((2-(((3S,6S,10aS)-3-((6R)-6-(1-(5-(4-(2,6-dioxopiperidin-3-yl)phenoxy)pentyl)-2-oxo-1,2-dihydropyridin-4-yl)-4-azaspiro[2.4]heptane-4-carbonyl)-5-oxodecahydropyrrolo[1,2-a]azocin-6-yl)carbamoyl)benzo[b]thiophen-5-yl)difluoromethyl)phosphonic acid] | < 0.3 | 1 to 10 | 1 to 3
5 | N#CC1CN(C(=O)C2CCC3CCCCC(NC(=O)c4cc5cc(C(F)(F)P(=O)(O)O)ccc5s4)C(=O)N32)CC1c1cccc(N2CCN(c3ccc4c(c3)[nH]c(=O)n4C3CCC(=O)NC3=O)CC2)c1 [Compound 22, ((2-(((3S,6S,10aS)-3-((rel-3S,4R)-3-cyano-4-(3-(4-(1-(2,6-dioxopiperidin-3-yl)-2-oxo-2,3-dihydro-1H-benzo[d]imidazol-5-yl)piperazin-1-yl)phenyl)pyrrolidine-1-carbonyl)-5-oxodecahydropyrrolo[1,2-a]azocin-6-yl)carbamoyl)benzo[b]thiophen-5-yl)difluoromethyl)phosphonic acid] | < 0.3 | 0.1 to 1 | 1 to 3
6 | N#CC1CN(C(=O)C2CCC3CCCCC(NC(=O)c4cc5cc(C(F)(F)P(=O)(O)O)ccc5s4)C(=O)N32)CC1c1cccc(OCCCCCC#Cc2cccc3c2CN(C2CCC(=O)NC2=O)C3=O)c1 [Compound 13, ((2-(((3S,6S,10aS)-3-((rel-3S,4R)-3-cyano-4-(3-((7-(2-(2,6-dioxopiperidin-3-yl)-1-oxoisoindolin-4-yl)hept-6-yn-1-yl)oxy)phenyl)pyrrolidine-1-carbonyl)-5-oxodecahydropyrrolo[1,2-a]azocin-6-yl)carbamoyl)benzo[b]thiophen-5-yl)difluoromethyl)phosphonic acid] | < 0.3 | 0.1 to 1 | > 3
7 | O=C1CCC(N2Cc3c(OCCOCCOCCn4ccc([C@@H]5CN(C(=O)[C@@H]6CC[C@@H]7CCCC[C@H](NC(=O)c8cc9cc(C(F)(F)P(=O)(O)O)ccc9s8)C(=O)N76)C6(CC6)C5)cc4=O)cccc3C2=O)C(=O)N1 (stereo partly drawn) [Compound 27, ((2-(((3S,6S,10aS)-3-((6R)-6-(1-(2-(2-(2-((2-(2,6-dioxopiperidin-3-yl)-1-oxoisoindolin-4-yl)oxy)ethoxy)ethoxy)ethyl)-2-oxo-1,2-dihydropyridin-4-yl)-4-azaspiro[2.4]heptane-4-carbonyl)-5-oxodecahydropyrrolo[1,2-a]azocin-6-yl)carbamoyl)benzo[b]thiophen-5-yl)difluoromethyl)phosphonic acid] | 0.3 to 3 | 1 to 10 | > 3
